Substitutions are numbered along the chain they refer to.
How the values were obtained:
[1] = biological target: T1, Synechocystis halorhodopsin (SyHR) (Synechocystis sp. PCC 7509, UniProt A0A9X9ZA75); assay: absorption spectral shift titration (UV-visible), single-site Hill fit; format: binding
T1 construct: codon-optimised, C-terminal His6 tag, pET21a, E. coli BL21(DE3) with all-trans retinal; HisTrap-purified in DDM
T1 sequence (A0A9X9ZA75 1-234): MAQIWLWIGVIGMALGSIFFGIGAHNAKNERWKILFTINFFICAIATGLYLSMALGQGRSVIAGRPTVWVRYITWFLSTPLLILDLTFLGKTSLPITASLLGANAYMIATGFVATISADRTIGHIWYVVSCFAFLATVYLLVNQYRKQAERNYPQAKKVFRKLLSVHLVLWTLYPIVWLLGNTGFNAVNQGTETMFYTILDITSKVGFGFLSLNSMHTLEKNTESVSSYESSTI

[2] = biological target: T2, Synechocystis halorhodopsin (SyHR) (Synechocystis sp. PCC 7509, UniProt A0A9X9ZA75, H167A); assay: as above; format: binding
T2 construct: codon-optimised, C-terminal His6 tag, pET21a, E. coli BL21(DE3) with all-trans retinal; HisTrap-purified in DDM
T2 sequence (A0A9X9ZA75 1-234 H167A): T1 sequence (A0A9X9ZA75 1-234) with H167A

[3] = biological target: T3, Synechocystis halorhodopsin (SyHR) (Synechocystis sp. PCC 7509, UniProt A0A9X9ZA75, R71K); assay: as above; format: binding
T3 construct: codon-optimised, C-terminal His6 tag, pET21a, E. coli BL21(DE3) with all-trans retinal; HisTrap-purified in DDM
T3 sequence (A0A9X9ZA75 1-234 R71K): T1 sequence (A0A9X9ZA75 1-234) with R71K

[4] = biological target: T4, Synechocystis halorhodopsin (SyHR) (Synechocystis sp. PCC 7509, UniProt A0A9X9ZA75, R71A); assay: biochemical
T4 sequence (A0A9X9ZA75 1-234 R71A): T1 sequence (A0A9X9ZA75 1-234) with R71A

[5] = biological target: T5, Synechocystis halorhodopsin (SyHR) (Synechocystis sp. PCC 7509, UniProt A0A9X9ZA75, R71Y); assay: biochemical
T5 sequence (A0A9X9ZA75 1-234 R71Y): T1 sequence (A0A9X9ZA75 1-234) with R71Y

Row | Compound | Kd [1] [mM] | Kd [2] [mM] | Kd [3] [mM] | Kd [4] [mM] | Kd [5] [mM]
1 | O=S(=O)(O)O [SO4^2−] | 3.6 | 6.5 | 3.8 | – | –
2 | Cl [Cl^−] | 0.59 | 0.36 | 0.55 | 4.5 | 1.4
